Data on two compounds can be found in patent publication US20250381412A1, “METHODS AND SYSTEMS FOR NEUROMODULATION” (Cardionomix, Inc., priority 2022, published 2025).

The subject of the experiment is normal, non-HF ovine model. Put plainly: Heartbeat-by-heartbeat changes in right and left ventricle contractility (max dP/dt as surrogate) after an injection. Format: in vivo. The settings on record: pressure max (dP/dt) used as surrogate for contractility, after injection (calcium: 5 mL). An excerpt:
The correlation was a heartbeat-by-heartbeat analysis. Pressure measurements, taken by a Millar catheter comprising a MEMS pressure sensor, in units of max (dP/dt) was used as a surrogate for contractility.
The first change, a dobutamine injection, provided a very high contractility increase greater than 500%. The average correlation between right ventricle contractility and left ventricle contractility was very good at 0.91, where 1.00 is a perfect correlation. Accordingly, if a subject is given a dobutamine injection, measuring changes to right ventricle contractility can provide accurate information about changes to left ventricle contractility. The first change was repeated three times.
The second change, calcium injection at 5 mL, provided a contractility increase of about 20%. […] The average correlation between right […] contractility and left ventricle contractility using a Millar (MEMS) sensor on a catheter was very good at 0.91. The average correlation between right ventricle contractility and left ventricle contractility using a fluid-filled lumen of a Swan-Ganz catheter in communication with an external pressure sensor was also very good at 0.87. Accordingly, under certain circumstances such as measurement of an animal (normal, non-HF ovine model) model, if a subject is given a calcium injection, measuring changes to right ventricle contractility with a MEMS sensor or a fluid filled lumen can provide accurate information about changes to left ventricle contractility.

The structures appear in SMILES notation.

For `[Ca+2]` [Calcium, calcium], the “Contractility % Increase” value is ~20%. Besides, the “Contractility % Increase” value (listed as calcium) is reported as “about 20%”.
With `CC(CCc1ccc(O)cc1)NCCc1ccc(O)c(O)c1` (stereo not shown) [Dobutamine Injection, dobutamine], the “Contractility % Increase” value is listed as >500%. The “Contractility % Increase” value (listed as dobutamine) is listed as “greater than 500%”.
